Assay results published in paper PMC11358582, “Discovery of a potential bladder cancer inhibitor CHNQD-01281 by regulating EGFR and promoting infiltration of cytotoxic T cells” (Marine Life Science & Technology, 2024).

Columns and labels:
Assay type in all cases: cell-based, human
J82 cell line [1] = test: Cell cycle analysis (Muse Cell Analyzer)
Procedure: (§1) T24 and J82 cell lines were seeded in 6-well plates (3 × 10^5 cells/well) and treated with different concentrations of CHNQD-01281 or DMSO. Cells were then harvested, washed with ice-cold PBS, and fixed in 70% cold ethanol overnight at − 20 °C. Fixed cells were then collected, washed, and stained with 200 μL of Muse™ cell cycle reagent for 30 min in the dark at room temperature. The cell cycle distribution was immediately analyzed by Muse Cell Analyzer (Millipore, Billerica, MA, USA).
(§2) The G1/S transition is a key checkpoint in the cell cycle that regulates DNA replication. As the cell cycle progresses, G1 phase arrest leads to apoptosis or repair mechanisms.

T24 cell line [2] = test: Cell cycle analysis (Muse Cell Analyzer)
Procedure: as §1, §2

J82 cell line [3] = test: Cell apoptosis analysis (Annexin V); details: J82, 0.32 µmol/L (control 4.15%)
Procedure: (§3) T24 and J82 cell lines were seeded in 6-well plates (3 × 10^5 cells/well) and treated with different concentrations of CHNQD-01281 or DMSO. Muse™ Annexin V and Dead Cell assay kit (Muse TM Cell Analyzer, Millipore (catalog no. MCH100105)) was used to determine the cell apoptosis by Muse cell analyzer (Millipore, Billerica, MA, USA).
(§4) Furthermore, treatment with CHNQD-01281 induced a dose-dependent increase in the total apoptosis of T24 and J82 cell lines. […] Meanwhile, the expression of apoptosis-related proteins cleaved PARP and cleaved caspase-3 were detected by Western blot. […] Therefore, CHNQD-01281 can induce DNA damage to arrest the cell cycle at the G0/G1 phase, affect the expression of DNA damage repair enzyme PARP, and finally induce apoptosis of bladder cancer cell lines.

T24 cell line [4] = test: Cell apoptosis analysis (Annexin V); details: T24, 0.32 µmol/L (control 3.45%)
Procedure: as §3, §4

For `C[C@H]1CCC/C=C/[C@@H]2C[C@H](O)C[C@H]2[C@H](OC(=O)/C=C/c2cccnc2)/C=C/C(=O)O1` [CHNQD-01281, Brefeldin A 4-O-3-(pyridin-3-yl) acrylate], the “proportion of cells in S phase” value (J82 cell line [1]; J82, 0.04 µmol/L (control 27.5%)) was 26.0%, the G0/G1 cells (J82 cell line [1]; J82, 0.04 µmol/L (control 53.1%)) was 60.3% and the “proportion of cells in S phase” value (J82 cell line [1]; J82, 0.08 µmol/L (control 27.5%)) was 22.1%. For the same compound, the G0/G1 cells (J82 cell line [1]; J82, 0.08 µmol/L (control 53.1%)) was 66.3%, the “proportion of cells in S phase” value (J82 cell line [1]; J82, 0.16 µmol/L (control 27.5%)) was 18.2% and the G0/G1 cells (J82 cell line [1]; J82, 0.16 µmol/L (control 53.1%)) was 73.6%. The “proportion of cells in S phase” value (T24 cell line [2]; T24, 0.04 µmol/L (control 20.5%)) was 18.9%, the G0/G1 cells (T24 cell line [2]; T24, 0.04 µmol/L (control 61.4%)) was 65.0% and the “proportion of cells in S phase” value (T24 cell line [2]; T24, 0.08 µmol/L (control 20.5%)) was 13.5%. The G0/G1 cells (T24 cell line [2]; T24, 0.08 µmol/L (control 61.4%)) was 75.2%, the “proportion of cells in S phase” value (T24 cell line [2]; T24, 0.16 µmol/L (control 20.5%)) was 11.4% and the G0/G1 cells (T24 cell line [2]; T24, 0.16 µmol/L (control 61.4%)) was 80.6%. For the same compound, the total apoptotic cells (J82 cell line [3]) was 27.9% and the total apoptotic cells (T24 cell line [4]) was 27.8%.
